Test results reported in US20240300932A1, “N-PHENYLIMINE DERIVATIVE AND PREPARATION METHOD AND USE THEREOF” (Guizhou University, priority 2023, published 2024).

Assays:
Test in all cases: Post-emergence herbicidal activity test (stem and leaf spray, pot culture)
Format in all cases: in vivo
Conditions in all cases: 3 weeks after spraying
Echinochloa crusgalli = tested on: Echinochloa crusgalli
Experimental: (§1) The weeds were cultivated in a 180 mm×140 mm plastic nutrient pot by a pot-culture method, placed in an enamel tray, and the plastic nutrient pots were filled with surface soil (⅘ of a depth) collected from a farmland and air-dried and sieved, and a soil humidity was controlled at 20% in the initial stage. Weed seeds with plump and uniform grains were selected, soaked in warm water at 25° C. for 6 h, and germinated in a biochemical incubator (dark) at 28° C. The freshly exposed weed seeds were evenly placed on the soil surface, and then covered with 0.5 cm to 1 cm of soil according to the size of the seeds. The weeds are cultivated in a controlled sunlight greenhouse at 20° C. to 30° C., under natural light, and a relative humidity of 57% to 72%. The soil was loam, including 1.63% of organic matters, with a pH value of 7, 84.3 mg/kg of alkaline nitrogen, 38.5 mg/kg of available phosphorus, and 82.1 mg/kg of available potassium.
(§2) Each treatment was repeated 2 times, each treatment included 12 pots, and 20 weed seeds were sown in each pot. Pesticide was applied in the test for 1 time in total. When the weeds grew to 1.5- to 2-leaf stage, thinning was conducted, with 10 weeds in each pot, and 30 weeds were kept in each treatment.
(§3) The cultivated weeds were placed on trays with an area of 0.1 m^2, and stems and leaves were sprayed with a sprayer. After applying a pesticide, the pesticide applied weeds were moved into a greenhouse for routine cultivation.
(§4) 2 weeks after sowing, the test plants were treated at the 2- to 3-leaf stage: the compounds of the present disclosure for testing were dissolved in acetone separately, and added with Tween 80, an emulsifiable oil of 1.5 liters/ha methyl oleate was added as a synergist, and an obtained mixture was diluted with certain water to a certain concentration solution. The solution was sprayed onto the plants using a spray tower. After spraying, the weeds were cultivated in the greenhouse for 3 weeks, and the experimental effects on the weeds were counted. The effective concentrations of the compounds were 10 g/mu, 5 g/mu, and 2.5 g/mu, the experiment was repeated three times, and an average result was taken.
(§5) The activity level criteria for plant destruction (i.e. growth control rate) are as follows: • Grade 5: the growth control rate is greater than or equal to 85%; • Grade 4: the growth control rate is greater than or equal to 60% and less than 85%; • Grade 3: the growth control rate is greater than or equal to 40% and less than 60%; • Grade 2: the growth control rate is greater than or equal to 20% and less than 40%; • Grade 1: the growth control rate is greater than or equal to 5% and less than 20%; and • Grade 0: the growth control rate is less than 5%.
(§6) The growth control rate is a fresh weight control rate.

Setaria viridis = tested on: Setaria viridis
Experimental: as §1, §2, §3, §4, §5, §6

Portulaca oleracea = tested on: Portulaca oleracea
Experimental: as §1, §2, §3, §4, §5, §6

Abutilon theophrasti = tested on: Abutilon theophrasti
Experimental: as §1, §2, §3, §4, §5, §6

Amaranthus retroflexus = tested on: Amaranthus retroflexus
Experimental: as §1, §2, §3, §4, §5, §6

Trifoliumre pensL. = tested on: Trifoliumre pensL.
Experimental: (1) Post-Emergence Stem and Leaf Spray Treatment: The weeds were cultivated in a 180 mm×140 mm plastic nutrient pot by a pot-culture method, placed in an enamel tray, and the plastic nutrient pots were filled with surface soil (⅘ of a depth) collected from a farmland and air-dried and sieved, and a soil humidity was controlled at 20% in the initial stage. Weed seeds with plump and uniform grains were selected, soaked in warm water at 25° C. for 6 h, and germinated in a biochemical incubator (dark) at 28° C. The freshly exposed weed seeds were evenly placed on the soil surface, and then covered with 0.5 cm to 1 cm of soil according to the size of the seeds. The weeds are cultivated in a controlled sunlight greenhouse at 20° C. to 30° C., under natural light, and a relative humidity of 57% to 72%. The soil was loam, including 1.63% of organic matters, with a pH value of 7, 84.3 mg/kg of alkaline nitrogen, 38.5 mg/kg of available phosphorus, and 82.1 mg/kg of available potassium. Each treatment was repeated 2 times, each treatment included 12 pots, and 20 weed seeds were sown in each pot. Pesticide was applied in the test for 1 time in total. When the weeds grew to 1.5- to 2-leaf stage, thinning was conducted, with 10 weeds in each pot, and 30 weeds were kept in each treatment. The cultivated weeds were placed on trays with an area of 0.1 m^2, and stems and leaves were sprayed with a sprayer. After applying a pesticide, the pesticide applied weeds were moved into a greenhouse for routine cultivation. 2 weeks after sowing, the test plants were treated at the 2- to 3-leaf stage: the compounds of the present disclosure for testing were dissolved in acetone separately, and added with Tween 80, an emulsifiable oil of 1.5 liters/ha methyl oleate was added as a synergist, and an obtained mixture was diluted with certain water to a certain concentration solution. The solution was sprayed onto the plants using a spray tower. After spraying, the weeds were cultivated in the greenhouse for 3 weeks, and the experimental effects on the weeds were counted. The effective concentrations of the compounds were 10 g/mu, 5 g/mu, and 2.5 g/mu, the experiment was repeated three times, and an average result was taken.

O=C1C2=C(CCCC2)C(=O)N1c1cc(OCc2nnc(-c3ccc(Br)cc3)o2)c(Cl)cc1F [Compound B16]
Post-emergence herbicidal activity, E. crusgalli (grade) (Echinochloa crusgalli; dosage 2.5 g/mu): 1 (Grade 1: the growth control rate is greater than or equal to 5% and less than 20%)
Post-emergence herbicidal activity, E. crusgalli (grade) (Echinochloa crusgalli; dosage 5 g/mu): 2 (Grade 2: the growth control rate is greater than or equal to 20% and less than 40%)
Post-emergence herbicidal activity, E. crusgalli (grade) (Echinochloa crusgalli; dosage 10 g/mu): 3 (Grade 3: the growth control rate is greater than or equal to 40% and less than 60%)
Post-emergence herbicidal activity, S. viridis (grade) (Setaria viridis; dosage 2.5 g/mu): 2 (Grade 2: the growth control rate is greater than or equal to 20% and less than 40%)
Post-emergence herbicidal activity, S. viridis (grade) (Setaria viridis; dosage 5 g/mu): 3 (Grade 3: the growth control rate is greater than or equal to 40% and less than 60%)
Post-emergence herbicidal activity, S. viridis (grade) (Setaria viridis; dosage 10 g/mu): 4 (Grade 4: the growth control rate is greater than or equal to 60% and less than 85%)
Post-emergence herbicidal activity, P. oleracea (grade) (Portulaca oleracea; dosage 2.5 g/mu): 5 (Grade 5: the growth control rate is greater than or equal to 85%)
Post-emergence herbicidal activity, P. oleracea (grade) (Portulaca oleracea; dosage 5 g/mu): 5 (Grade 5: the growth control rate is greater than or equal to 85%)
Post-emergence herbicidal activity, P. oleracea (grade) (Portulaca oleracea; dosage 10 g/mu): 5 (Grade 5: the growth control rate is greater than or equal to 85%)
Post-emergence herbicidal activity, A. theophrasti (grade) (Abutilon theophrasti; dosage 2.5 g/mu): 5 (Grade 5: the growth control rate is greater than or equal to 85%)
Post-emergence herbicidal activity, A. theophrasti (grade) (Abutilon theophrasti; dosage 5 g/mu): 5 (Grade 5: the growth control rate is greater than or equal to 85%)
Post-emergence herbicidal activity, A. theophrasti (grade) (Abutilon theophrasti; dosage 10 g/mu): 5 (Grade 5: the growth control rate is greater than or equal to 85%)
Post-emergence herbicidal activity, A. retroflexus (grade) (Amaranthus retroflexus; dosage 2.5 g/mu): 5 (Grade 5: the growth control rate is greater than or equal to 85%)
Post-emergence herbicidal activity, A. retroflexus (grade) (Amaranthus retroflexus; dosage 5 g/mu): 5 (Grade 5: the growth control rate is greater than or equal to 85%)
Post-emergence herbicidal activity, A. retroflexus (grade) (Amaranthus retroflexus; dosage 10 g/mu): 5 (Grade 5: the growth control rate is greater than or equal to 85%)
Post-emergence herbicidal activity, Trifoliumre pensL. (grade) (Trifoliumre pensL.; dosage 2.5 g/mu): 5 (Grade 5: the growth control rate is greater than or equal to 85%)
Post-emergence herbicidal activity, Trifoliumre pensL. (grade) (Trifoliumre pensL.; dosage 5 g/mu): 5 (Grade 5: the growth control rate is greater than or equal to 85%)
Post-emergence herbicidal activity, Trifoliumre pensL. (grade) (Trifoliumre pensL.; dosage 10 g/mu): 5 (Grade 5: the growth control rate is greater than or equal to 85%)

O=C1C2=C(CCCC2)C(=O)N1c1cc(OCc2nnc(-c3ccc(I)cc3)o2)c(Cl)cc1F [Compound B17]
Post-emergence herbicidal activity, E. crusgalli (grade) (Echinochloa crusgalli; dosage 2.5 g/mu): 1 (Grade 1: the growth control rate is greater than or equal to 5% and less than 20%)
Post-emergence herbicidal activity, E. crusgalli (grade) (Echinochloa crusgalli; dosage 5 g/mu): 2 (Grade 2: the growth control rate is greater than or equal to 20% and less than 40%)
Post-emergence herbicidal activity, E. crusgalli (grade) (Echinochloa crusgalli; dosage 10 g/mu): 3 (Grade 3: the growth control rate is greater than or equal to 40% and less than 60%)
Post-emergence herbicidal activity, S. viridis (grade) (Setaria viridis; dosage 2.5 g/mu): 2 (Grade 2: the growth control rate is greater than or equal to 20% and less than 40%)
Post-emergence herbicidal activity, S. viridis (grade) (Setaria viridis; dosage 5 g/mu): 3 (Grade 3: the growth control rate is greater than or equal to 40% and less than 60%)
Post-emergence herbicidal activity, S. viridis (grade) (Setaria viridis; dosage 10 g/mu): 4 (Grade 4: the growth control rate is greater than or equal to 60% and less than 85%)
Post-emergence herbicidal activity, P. oleracea (grade) (Portulaca oleracea; dosage 2.5 g/mu): 5 (Grade 5: the growth control rate is greater than or equal to 85%)
Post-emergence herbicidal activity, P. oleracea (grade) (Portulaca oleracea; dosage 5 g/mu): 5 (Grade 5: the growth control rate is greater than or equal to 85%)
Post-emergence herbicidal activity, P. oleracea (grade) (Portulaca oleracea; dosage 10 g/mu): 5 (Grade 5: the growth control rate is greater than or equal to 85%)
Post-emergence herbicidal activity, A. theophrasti (grade) (Abutilon theophrasti; dosage 2.5 g/mu): 5 (Grade 5: the growth control rate is greater than or equal to 85%)
Post-emergence herbicidal activity, A. theophrasti (grade) (Abutilon theophrasti; dosage 5 g/mu): 5 (Grade 5: the growth control rate is greater than or equal to 85%)
Post-emergence herbicidal activity, A. theophrasti (grade) (Abutilon theophrasti; dosage 10 g/mu): 5 (Grade 5: the growth control rate is greater than or equal to 85%)
Post-emergence herbicidal activity, A. retroflexus (grade) (Amaranthus retroflexus; dosage 2.5 g/mu): 5 (Grade 5: the growth control rate is greater than or equal to 85%)
Post-emergence herbicidal activity, A. retroflexus (grade) (Amaranthus retroflexus; dosage 5 g/mu): 5 (Grade 5: the growth control rate is greater than or equal to 85%)
Post-emergence herbicidal activity, A. retroflexus (grade) (Amaranthus retroflexus; dosage 10 g/mu): 5 (Grade 5: the growth control rate is greater than or equal to 85%)
Post-emergence herbicidal activity, Trifoliumre pensL. (grade) (Trifoliumre pensL.; dosage 2.5 g/mu): 5 (Grade 5: the growth control rate is greater than or equal to 85%)
Post-emergence herbicidal activity, Trifoliumre pensL. (grade) (Trifoliumre pensL.; dosage 5 g/mu): 5 (Grade 5: the growth control rate is greater than or equal to 85%)
Post-emergence herbicidal activity, Trifoliumre pensL. (grade) (Trifoliumre pensL.; dosage 10 g/mu): 5 (Grade 5: the growth control rate is greater than or equal to 85%)

O=C1C2=C(CCCC2)C(=O)N1c1cc(OCc2nc(-c3ccccc3C(F)(F)F)no2)c(Cl)cc1F [Compound A18]
Post-emergence herbicidal activity, E. crusgalli (grade) (Echinochloa crusgalli; dosage 2.5 g/mu): 1 (Grade 1: the growth control rate is greater than or equal to 5% and less than 20%)
Post-emergence herbicidal activity, E. crusgalli (grade) (Echinochloa crusgalli; dosage 5 g/mu): 2 (Grade 2: the growth control rate is greater than or equal to 20% and less than 40%)
Post-emergence herbicidal activity, E. crusgalli (grade) (Echinochloa crusgalli; dosage 10 g/mu): 3 (Grade 3: the growth control rate is greater than or equal to 40% and less than 60%)
Post-emergence herbicidal activity, S. viridis (grade) (Setaria viridis; dosage 2.5 g/mu): 2 (Grade 2: the growth control rate is greater than or equal to 20% and less than 40%)
Post-emergence herbicidal activity, S. viridis (grade) (Setaria viridis; dosage 5 g/mu): 3 (Grade 3: the growth control rate is greater than or equal to 40% and less than 60%)
Post-emergence herbicidal activity, S. viridis (grade) (Setaria viridis; dosage 10 g/mu): 4 (Grade 4: the growth control rate is greater than or equal to 60% and less than 85%)
Post-emergence herbicidal activity, P. oleracea (grade) (Portulaca oleracea; dosage 2.5 g/mu): 4 (Grade 4: the growth control rate is greater than or equal to 60% and less than 85%)
Post-emergence herbicidal activity, P. oleracea (grade) (Portulaca oleracea; dosage 5 g/mu): 5 (Grade 5: the growth control rate is greater than or equal to 85%)
Post-emergence herbicidal activity, P. oleracea (grade) (Portulaca oleracea; dosage 10 g/mu): 5 (Grade 5: the growth control rate is greater than or equal to 85%)
Post-emergence herbicidal activity, A. theophrasti (grade) (Abutilon theophrasti; dosage 2.5 g/mu): 5 (Grade 5: the growth control rate is greater than or equal to 85%)
Post-emergence herbicidal activity, A. theophrasti (grade) (Abutilon theophrasti; dosage 5 g/mu): 5 (Grade 5: the growth control rate is greater than or equal to 85%)
Post-emergence herbicidal activity, A. theophrasti (grade) (Abutilon theophrasti; dosage 10 g/mu): 5 (Grade 5: the growth control rate is greater than or equal to 85%)
Post-emergence herbicidal activity, A. retroflexus (grade) (Amaranthus retroflexus; dosage 2.5 g/mu): 5 (Grade 5: the growth control rate is greater than or equal to 85%)
Post-emergence herbicidal activity, A. retroflexus (grade) (Amaranthus retroflexus; dosage 5 g/mu): 5 (Grade 5: the growth control rate is greater than or equal to 85%)
Post-emergence herbicidal activity, A. retroflexus (grade) (Amaranthus retroflexus; dosage 10 g/mu): 5 (Grade 5: the growth control rate is greater than or equal to 85%)
Post-emergence herbicidal activity, Trifoliumre pensL. (grade) (Trifoliumre pensL.; dosage 2.5 g/mu): 4 (Grade 4: the growth control rate is greater than or equal to 60% and less than 85%)
Post-emergence herbicidal activity, Trifoliumre pensL. (grade) (Trifoliumre pensL.; dosage 5 g/mu): 5 (Grade 5: the growth control rate is greater than or equal to 85%)
Post-emergence herbicidal activity, Trifoliumre pensL. (grade) (Trifoliumre pensL.; dosage 10 g/mu): 5 (Grade 5: the growth control rate is greater than or equal to 85%)
